Experiment [1] concerns Very long-chain acyl-CoA dehydrogenase (VLCAD) primary fibroblasts GM17475. Briefly: NADP+/NADPH (NADP/NADPH-Glo), VLCAD fibroblasts GM17475. It is filed as cell-based. The conditions noted are these: Homo sapiens, Fibroblast, 24h, read-out: Increase in Total NADP+ + NADPH. As for the experimental part: Primary adherent fibroblasts were cultured in minimum essential medium (MEM) (Gibco, 25030081) supplemented with 2 mM L-Glutamine (Gibco, 25030081), 15% fetal bovine serum (FBS) (Gibco, 26400044) and 1% penicillin/streptomycin (Gibco, 5140122) at 37° C. and 5% CO2. Cells were collected for either passaging or experiment at ˜70-80% confluence. Cells were obtained by trypsinization and seeded in cell culture microplates either white plate (Thermo Fisher Scientific, 152028) for luminescent measurement or black plate (Thermo Fisher Scientific, 165305) for fluorescent based read out for different assays listed below. Cells were obtained by trypsinization and […] were seeded and allowed to adhere for 16-18 hours to have confluency around 70-80% in the cell well with culture media. After 24 hours prior to measurements (37° C., 5% CO2) media was changed to Dulbecco's Modified Eagle Medium (DMEM, Agilent Seahorse cat #103575-100) with the appropriate supplements as stated below.
Primary fibroblasts assayed were Propionic Acidemia (PA) (GM03590 Coriell Institute for Medical Research, Tsi 6337 Trans-Hit Bio), Methylmalonic Acidemia (MMA) (Tsi 5224 Trans-Hit Bio), Subnormal activation of pyruvate dehydrogenase complex (PDH) (GM01503 Coriell Institute for Medical Research), Very long-chain acyl-CoA dehydrogenase (VLCAD) (GM17475), Leigh Syndrome (LS) (GM03672, GM13411 Coriell Institute for Medical Research), Pyruvate Carboxylase Deficiency (PC) (GM00444 Coriell Institute for Medical Research). 10 μM of Compounds were added for 2 hours in PA, MMA lines and for 24h for the other fibroblast lines.
Assay was performed according to manufacturer instructions (NADP+/NADPH-Glo Assay Promega, G9082). Assay required a plate for total measurement of NADP+/NADPH and a plate for individual measurement of NADP+ or NADPH. For every assay a 12-point standard curve is prepared ranging from 400 nM to 0.625 nM. Media is removed and replaced with 50 μl of PBS for both assays.
For individual NADP+/NADPH measurements, 50 μl of 1% DTAB (Sigma, D5047) (cell lysis reagent) in 0.2N NaOH was added to the plates and 100 μl of lysate was split into two plates with 50 μl each from which ratio of NADP/NADPH can be calculated. 25 μl of 0.4N HCl were added to the NADP+ plates and both NADP+ and NADPH plates were heated at 60° C. for 15 minutes. The acid and heat treatment destroyed NADPH allowing individual NADP+ measurements while heating in basic conditions destroys NADP+ allowing individual NADPH measurement. After 15 minutes plates were allowed to come to room temperature and Trizma base (Sigma, T1699) was added to the NADP+ plates to neutralize the acid and HCl Trizma hydrochloride (Sigma, T2694) was added to the NADPH plates. The NADNADPH glo reagent was prepared by adding 125 μl of NAD cycling substrate, 125 μl of reductase, 125 μl of reductase substrate, 125 μl NAD cycling enzyme to a total of the 25 ml of NAD GLO reagent. 1:1 ratio of total volume of reagent was added to the individual NADP+, NADPH measurements (total 100 μl) and 50 μl were added for the total NAD/NADPH measurements. Luminescence was measured for 30-60 minutes within the linear range.
A total dead cell count was performed as described in Example 817 and only alive cells were used for analysis.

Experiment [2] deals with Peripheral blood mononuclear cells co-cultured with B-cells (BT system). The conditions noted are these: 10 uM; procedure of Example 829.
Experiment [3] concerns Peripheral blood mononuclear cells co-cultured with venular endothelial cells (HUVEC) (LPS system). Briefly: BioMAP LPS system. It is filed as cell-based, human. The conditions noted are these: 10 uM, procedure of Example 827.
[4] abbreviates: VLCAD GM17475 P10, assay condition A (10 mM glucose, 2 mM L-glutamine, 1 mM pyruvate, 10% FBS).

Where two headings read alike, the source gives them in different places.

As for `CC(=O)OCC(C)(C)[C@@H](OC(C)=O)C(=O)NCCC(=O)NCCSC(C)=O` [Compound 1264, (1R)-3-(acetyloxy)-1-[(2-[[2-(acetylsulfanyl)ethyl]carbamoyl]ethyl)carbamoyl]-2,2-dimethylpropyl acetate], the activation at 10 µM in experiment [1] (setting [4]) was at least 10%. Moreover, in experiment [2], the “% decrease in sTNFα” value is at least 10% and the “% increase in B-cell Proliferation” value is listed as at least 10%.
Turning to `CCC(=O)CC(=O)SCCNC(=O)CCNC(=O)[C@H](O)C(C)(C)CO` [Compound 382, (2R)-2,4-dihydroxy-3,3-dimethyl-N-[2-([2-[(3-oxopentanoyl)sulfanyl]ethyl]carbamoyl)ethyl]butanamide], the activation at 10 µM in experiment [1] (setting [4]) is at least 10%.
Turning to `CC(O)CC(O)CC(O)CC(=O)SCCNC(=O)CCNC(=O)[C@H](O)C(C)(C)CO` (stereo partly drawn) [Compound 401], the activation at 10 µM in experiment [1] (VLCAD GM17475 P10, assay condition B (1 mM glucose, 2 mM L-glutamine, 1 mM pyruvate, 10% FBS)) is at least 10%.
Regarding `CC[C@@H](O)CC(=O)SCCNC(=O)CCNC(=O)[C@H](O)C(C)(C)CO` [Compound 1245, (2R)-2,4-dihydroxy-N-{2-[(2-{[(3R)-3-hydroxypentanoyl]sulfanyl}ethyl)carbamoyl]ethyl}-3,3-dimethylbutanamide], the activation at 10 µM in experiment [1] (setting [4]) is at least 10%.
Turning to `C[C@@H](O)CC(=O)CC(=O)SCCNC(=O)CCNC(=O)[C@H](O)C(C)(C)CO` [Compound 42, (2R)-2,4-dihydroxy-N-[2-[(2-[[(5R)-5-hydroxy-3-oxohexanoyl]sulfanyl]ethyl)carbamoyl]ethyl]-3,3-dimethylbutanamide], the “% decrease in Thrombomodulin” value in experiment [3] is given as at least 10%. The inhibition at 10 µM in experiment [3] (Homo sapiens, HUVEC, 24 h, read-out: % decrease in TissueFactor) was at least 10%. The activation at 10 µM is at least 10% in experiment [3] (Homo sapiens, HUVEC, 24 h, read-out: % increase in sTNFα) and at least 10% in experiment [1] (setting [4]). Moreover, in experiment [2], the “% increase in sIL-2” value was at least 10%. Besides, the “% increase in sTNFα” value in experiment [2] is on record as at least 10%.

The values are drawn from patent US20230107216A1, “PANTETHEINE DERIVATIVES AND USES THEREOF” (Comet Therapeutics, Inc., priority 2018, published 2023).
